Results as given in paper PMC11842588, “A first-in-class selective inhibitor of ERK1/2 and ERK5 overcomes drug resistance with a single-molecule strategy” (Signal Transduction and Targeted Therapy, 2025).
“And” between values parts separate entries of the source, which are not always exact repeats. Identical values can stand only once.

Assays:
MEK1/2 and MEK5 = assay: Immunoblotting of upstream MEK activity; type: cell-based; details: up to 5 μM, 24 h
Procedure: Then, the cells were washed twice with PBS and stimulated with cell lysis buffer. After 13,000 rpm centrifugation for 20 min, an enhanced bicinchoninic acid (BCA) protein assay kit was (Beyotime Biotechnology, Jiangsu, China) used to quantify the protein level of the supernatural. […] Furthermore, membranes were blocked with 5% skim milk. The membranes were incubated by the corresponding primary antibodies. After being washed twice with TBST solution, the membranes were incubated with horseradish peroxidase (HRP)-conjugated secondary antibodies and visualized by employing ECL ([…]) as the HRP substrate.

ERK5 = ERK5 (Homo sapiens, UniProt Q13164); assay: Isothermal titration calorimetry (ITC) assay; type: binding; parameters: ERK5 (residues 48–395) containing His and GST tags was cloned into the pFastBac vector; His (cleaved yes); GST (cleaved yes); made in house; host or cells: Sf9 insect cells (baculovirus); details: 25 °C
Procedure: The full-length human ERK1 or ERK2 with His-tag was cloned into a pET28a vector. hERK1/2 were expressed in Escherichia coli BL21(DE3), and then were purified using sequential Ni-NTA and Superdex 200 column steps. The SEC purified sample was then concentrated to 10 mg/ml and stored at −80 °C with buffer containing 20 mM HEPES pH 7.5, 150 mM NaCl. ERK5 (residues 48–395) containing His and GST tags was cloned into the pFastBac vector, and the recombinant plasmid was extracted. The recombinant plasmid was transformed into the DH10bac strain, and monoclonal was selected for culture. The recombinant Bacmid was then extracted according to the instructions of the Baculovirus Shuttle Vector Bacmid Mini Preparation Kit (Beyotime) and validated by PCR. 1 × 10^6/well Sf9 cells were counted for transfection and then amplified to obtain P3 ERK5 recombinant baculovirus. It was added to 2 × 10^6/mL Sf9 cells and incubated at 27 °C for 72 h on a shaker to express ERK5. Cells were lysed and supernatant was collected on a Ni-NTA for purification, and a 250 mM imidazole eluate was collected. […]
Calorimetric experiments were carried on an Affinity ITC (Waters, Shanghai) with 1 mM SKLB-D18 and 0.1 mM ERK1/2/5. […] The data were analyzed with the NanoAnalyze software employing a single binding site model. […]

ERK1/2 and ERK5 = assay: Cellular thermal shift assay (CETSA); type: cell-based; details: 2 μM, MDA-MB-231 and MDA-MB-468 cells, 37–62 °C
Procedure: Cells were collected by trypsin and then resuspended in PBS. Following heating at the indicated temperatures (37, 42, 47, 52, 57, and 62 °C) for 3 min, cell suspensions were lysed by three freeze−thaw cycles with liquid nitrogen and thawed at room temperature. The lysates were separated by centrifugation at 17,000 × g for 20 min. The supernatants were collected and prepared for Immunoblotting to detect the stability of ERK1/2 and ERK5.

BT549 cells = assay: MTT cell viability assay; type: cell-based; details: Homo sapiens, BT-549, 72 h
Procedure: (§1) MDA-MB-468 and MDA-MB-436 cells were cultured in Leibovitz’s L-15 medium supplemented with 10% fetal bovine serum. […] All of the cells were cultured at 37 °C in a humidified atmosphere containing 5% CO2.
(§2) Cancer cells were seeded in a density in 96-well plates (2 × 10^3 cells per well). After incubation for 24 h, cancer cells were treated with compounds (0–20 μM) for 72 h.

MDA-MB-468 cells = assay: MTT cell viability assay; type: cell-based
Procedure: as §1, §2

MDA-MB-436 cells = assay: MTT cell viability assay; type: cell-based; details: Homo sapiens, 72 h
Procedure: as §1, §2

380 kinases = assay: Kinase profiling, whole panel; type: biochemical, human; details: 1 µM, panel of 380 kinases
Procedure: (§3) 380 kinases inhibitory activities of SKLB-D18 were conducted by Eurofins Cerep SA. The result was illustrated by kinase tree (http://www.kinhub.org/kinmap/).

CDK17/cyclinY(h) = molecular target: T1, CDK17/cyclinY(h) (Homo sapiens, UniProt Q00537); assay: Kinase profiling; type: biochemical
T1 construct: purchased Eurofins Cerep SA (KinaseProfiler)
Procedure: as §3

MOK(h) = molecular target: T2, MOK(h) (Homo sapiens, UniProt Q9UQ07); assay: Kinase profiling; type: biochemical
T2 construct: purchased Eurofins Cerep SA (KinaseProfiler)
Procedure: as §3

Lyn(h) = molecular target: T3, Lyn(h) (Homo sapiens, UniProt P07948); assay: Kinase profiling; type: biochemical
T3 construct: purchased Eurofins Cerep SA (KinaseProfiler)
Procedure: as §3

Hck(h) = molecular target: T4, Hck(h) (Homo sapiens, UniProt P08631); assay: Kinase profiling; type: biochemical
T4 construct: purchased Eurofins Cerep SA (KinaseProfiler)
Procedure: as §3

CDK2/cyclinE(h) = molecular target: T5, CDK2/cyclinE(h) (Homo sapiens, UniProt P24941); assay: Kinase profiling; type: biochemical
T5 construct: purchased Eurofins Cerep SA (KinaseProfiler)
Procedure: as §3

MLK3(h) = molecular target: T6, MLK3(h) (Homo sapiens, UniProt Q16584); assay: Kinase profiling; type: biochemical
T6 construct: purchased Eurofins Cerep SA (KinaseProfiler)
Procedure: as §3

[1] = tested on: Caco-2 cell monolayer model; assay: Caco-2 bidirectional transport; type: in vitro ADME; details: Caco-2, 120 min
Procedure: (§4) Caco-2 cells were inoculated in a Transwell chamber with a pore size of 0.4 μm, and cultured for 15–20 days, the formation of the monolayer cell model was verified by the permeability determination of fluorescein sodium. Then a certain concentration of culture-medium containing candidate compounds was added to the upper and lower sides of different groups of cells, and the culture-medium at the corresponding position was absorbed after the specified time. After the internal standard compound was added, the content of candidate compounds was determined by LC-MS/MS to investigate the apparent permeability and effection rate, and to analyze the bidirectional transport characteristics of candidate compounds in the Caco-2 cell monolayer model.

[2] = Caco-2 bidirectional transport; type: in vitro ADME; details: human
Procedure: as §4

Chain of ERK5 (Q13164 48-395): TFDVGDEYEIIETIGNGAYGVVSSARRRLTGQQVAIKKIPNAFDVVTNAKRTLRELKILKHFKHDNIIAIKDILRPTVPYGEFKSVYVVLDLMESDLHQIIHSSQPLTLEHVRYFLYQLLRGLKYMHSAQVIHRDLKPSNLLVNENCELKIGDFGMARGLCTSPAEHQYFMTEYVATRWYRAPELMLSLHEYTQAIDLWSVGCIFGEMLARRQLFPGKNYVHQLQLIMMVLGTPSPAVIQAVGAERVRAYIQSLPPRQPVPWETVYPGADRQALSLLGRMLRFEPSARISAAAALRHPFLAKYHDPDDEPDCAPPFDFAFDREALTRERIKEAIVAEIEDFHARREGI
T4 sequence (P08631 whole entry): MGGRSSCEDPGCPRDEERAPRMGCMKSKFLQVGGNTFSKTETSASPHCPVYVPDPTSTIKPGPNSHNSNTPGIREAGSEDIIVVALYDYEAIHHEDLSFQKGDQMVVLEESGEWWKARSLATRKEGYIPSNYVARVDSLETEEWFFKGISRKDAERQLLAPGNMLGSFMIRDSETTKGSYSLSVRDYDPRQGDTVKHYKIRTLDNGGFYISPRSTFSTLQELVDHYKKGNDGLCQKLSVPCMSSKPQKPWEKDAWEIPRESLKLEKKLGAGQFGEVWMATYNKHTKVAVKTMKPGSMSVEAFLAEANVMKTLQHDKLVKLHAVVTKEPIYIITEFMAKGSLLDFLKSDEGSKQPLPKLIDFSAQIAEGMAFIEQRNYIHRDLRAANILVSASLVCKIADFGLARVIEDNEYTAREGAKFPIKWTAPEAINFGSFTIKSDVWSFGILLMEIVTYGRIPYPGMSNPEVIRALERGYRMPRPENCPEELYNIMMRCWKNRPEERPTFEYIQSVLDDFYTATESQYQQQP
T3 sequence (P07948 whole entry): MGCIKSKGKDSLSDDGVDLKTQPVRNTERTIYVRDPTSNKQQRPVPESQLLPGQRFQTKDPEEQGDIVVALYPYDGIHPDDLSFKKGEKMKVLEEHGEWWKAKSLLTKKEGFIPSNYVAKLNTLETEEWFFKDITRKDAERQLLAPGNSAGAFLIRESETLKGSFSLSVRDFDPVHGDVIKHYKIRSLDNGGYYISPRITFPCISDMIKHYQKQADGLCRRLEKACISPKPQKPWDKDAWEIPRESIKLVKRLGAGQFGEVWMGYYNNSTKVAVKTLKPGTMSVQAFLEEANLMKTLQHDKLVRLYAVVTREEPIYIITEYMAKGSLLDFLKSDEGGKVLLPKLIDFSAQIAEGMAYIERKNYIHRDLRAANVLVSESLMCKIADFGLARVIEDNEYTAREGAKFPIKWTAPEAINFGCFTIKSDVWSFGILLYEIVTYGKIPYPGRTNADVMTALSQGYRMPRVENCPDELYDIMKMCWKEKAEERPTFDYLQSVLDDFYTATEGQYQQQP
T6 sequence (Q16584 whole entry): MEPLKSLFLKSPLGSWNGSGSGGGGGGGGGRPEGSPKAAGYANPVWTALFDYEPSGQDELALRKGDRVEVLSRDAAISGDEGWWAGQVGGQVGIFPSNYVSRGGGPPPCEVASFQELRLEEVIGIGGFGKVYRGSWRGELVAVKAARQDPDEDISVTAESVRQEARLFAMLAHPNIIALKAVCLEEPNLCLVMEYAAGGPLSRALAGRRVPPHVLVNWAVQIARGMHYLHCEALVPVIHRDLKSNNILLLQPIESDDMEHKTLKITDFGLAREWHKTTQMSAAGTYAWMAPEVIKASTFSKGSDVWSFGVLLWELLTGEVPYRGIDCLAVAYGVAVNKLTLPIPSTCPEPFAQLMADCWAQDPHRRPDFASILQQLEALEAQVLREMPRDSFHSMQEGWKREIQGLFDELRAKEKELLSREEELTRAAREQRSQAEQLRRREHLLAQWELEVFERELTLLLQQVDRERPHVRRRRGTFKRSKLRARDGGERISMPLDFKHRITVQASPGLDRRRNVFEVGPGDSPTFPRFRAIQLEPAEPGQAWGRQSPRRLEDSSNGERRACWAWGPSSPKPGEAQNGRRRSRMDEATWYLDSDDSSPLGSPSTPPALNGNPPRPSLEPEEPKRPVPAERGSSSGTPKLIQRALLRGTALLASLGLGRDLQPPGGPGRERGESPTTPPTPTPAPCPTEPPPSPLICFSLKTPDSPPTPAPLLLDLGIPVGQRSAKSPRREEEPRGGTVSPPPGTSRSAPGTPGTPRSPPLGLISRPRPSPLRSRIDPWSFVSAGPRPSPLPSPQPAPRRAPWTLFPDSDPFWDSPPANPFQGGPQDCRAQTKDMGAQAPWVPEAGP
T1 sequence (Q00537 whole entry): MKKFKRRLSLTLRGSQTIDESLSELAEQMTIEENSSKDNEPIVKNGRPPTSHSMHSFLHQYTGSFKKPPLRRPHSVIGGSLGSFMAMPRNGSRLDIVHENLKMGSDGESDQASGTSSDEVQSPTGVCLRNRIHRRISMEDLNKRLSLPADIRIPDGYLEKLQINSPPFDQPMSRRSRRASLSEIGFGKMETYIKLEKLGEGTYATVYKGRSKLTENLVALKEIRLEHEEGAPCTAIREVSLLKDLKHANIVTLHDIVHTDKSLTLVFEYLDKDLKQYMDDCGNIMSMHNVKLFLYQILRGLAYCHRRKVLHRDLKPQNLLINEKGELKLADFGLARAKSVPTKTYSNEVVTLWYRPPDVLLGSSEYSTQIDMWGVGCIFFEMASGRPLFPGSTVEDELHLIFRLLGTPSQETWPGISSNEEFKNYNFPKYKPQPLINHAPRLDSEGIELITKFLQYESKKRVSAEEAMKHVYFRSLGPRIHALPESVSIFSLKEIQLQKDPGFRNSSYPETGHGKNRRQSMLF
T1 sequence (Q8ND76 whole entry partner): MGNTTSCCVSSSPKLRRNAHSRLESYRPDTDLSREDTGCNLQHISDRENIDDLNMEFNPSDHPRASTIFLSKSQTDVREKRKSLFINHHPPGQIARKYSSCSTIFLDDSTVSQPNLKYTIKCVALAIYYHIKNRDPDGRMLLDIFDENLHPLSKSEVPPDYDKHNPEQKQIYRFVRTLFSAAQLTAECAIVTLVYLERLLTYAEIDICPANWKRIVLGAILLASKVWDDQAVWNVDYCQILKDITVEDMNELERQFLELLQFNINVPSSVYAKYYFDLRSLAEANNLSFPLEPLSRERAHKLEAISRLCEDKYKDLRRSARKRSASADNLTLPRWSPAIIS
T2 sequence (Q9UQ07 whole entry): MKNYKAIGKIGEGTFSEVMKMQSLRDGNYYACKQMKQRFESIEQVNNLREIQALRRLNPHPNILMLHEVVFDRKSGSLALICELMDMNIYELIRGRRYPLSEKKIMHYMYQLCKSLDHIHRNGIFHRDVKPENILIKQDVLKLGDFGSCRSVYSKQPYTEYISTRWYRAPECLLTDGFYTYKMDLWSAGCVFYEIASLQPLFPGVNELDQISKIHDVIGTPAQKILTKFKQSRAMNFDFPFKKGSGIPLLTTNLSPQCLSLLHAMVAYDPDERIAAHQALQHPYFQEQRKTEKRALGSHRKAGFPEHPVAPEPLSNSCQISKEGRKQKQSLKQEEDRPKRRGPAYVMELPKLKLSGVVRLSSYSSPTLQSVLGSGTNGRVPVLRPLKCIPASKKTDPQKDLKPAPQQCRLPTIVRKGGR

Q: For `CN(C)Cc1cccc(Nc2ncc(Cl)c(-c3csc(C(=O)NN4CCOCC4)c3)n2)c1` [SKLB-D18, 4-(5-chloro-2-((3-((dimethylamino)methyl)phenyl)amino)pyrimidin-4-yl)-N-morpholinothiophene-2-carboxamide], which “changes in the activity of upstream MEK1/2 and MEK5” value (MEK1/2 and MEK5) is on record?
A: Its value is “did not cause any changes”.

Q: What about the Kd (ERK5) of the same compound?
A: The Kd was 468 nM.

Q: And the “thermal shift of ERK5 and ERK1/2 proteins (CETSA)” value (ERK1/2 and ERK5)?
A: The value was “increasing thermal shift”.

Q: And the IC50 (BT549 cells)?
A: Its IC50 is 3210 ± 340 nM.

Q: What about the “Anti-proliferative activity (10 μM, %) MDA-MB-468” value (MDA-MB-468 cells; 10 μM) of the same compound?
A: The value was 92.18 ± 0.93%.

Q: What about the IC50 (MDA-MB-468 cells; Homo sapiens, MDA-MB-468, MTT, 72 h) of the same compound?
A: The IC50 was 1050 ± 130 nM.

Q: And the IC50 (MDA-MB-436 cells)?
A: The IC50 was 2310 ± 290 nM.

Q: And the “number of protein kinases outside of ERK1/2/5 inhibited by >70%” value (380 kinases)?
A: Its value is 8.

Q: What about the inhibition at 1 µM (CDK17/cyclinY(h)) of the same compound?
A: Its inhibition at 1 µM is 57%.

Q: And the inhibition at 1 µM (MOK(h))?
A: The inhibition at 1 µM was 31%.

Q: What about the inhibition at 1 µM (Lyn(h)) of the same compound?
A: The inhibition at 1 µM was 60%.

Q: And the inhibition at 1 µM (Hck(h))?
A: Its inhibition at 1 µM is 20%.

Q: What about the inhibition at 1 µM (CDK2/cyclinE(h)) of the same compound?
A: The inhibition at 1 µM was 48%.

Q: What about the inhibition at 1 µM (MLK3(h)) of the same compound?
A: The inhibition at 1 µM was 69%.

Q: And the “Efflux rate (%)” value [1]?
A: The value was 13.7% and 13.7 ± 0.5%.

Q: What about the Papp A→B at 30 min ([2]; Caco-2, 30 min, read-out: AP→BL Papp) of the same compound?
A: The Papp A→B at 30 min was 0.106 ± 0.01 ×10⁻⁶ cm/s.

Q: What about the Papp B→A at 30 min ([2]; Caco-2, 30 min, read-out: BL→AP Papp) of the same compound?
A: Its Papp B→A at 30 min is 0.011 ± 0.01 ×10⁻⁶ cm/s.

Q: And the Papp A→B at 60 min ([2]; Caco-2, 60 min, read-out: AP→BL Papp)?
A: The Papp A→B at 60 min was 0.318 ± 0.06 ×10⁻⁶ cm/s.

Q: What about the Papp B→A at 60 min ([2]; Caco-2, 60 min, read-out: BL→AP Papp) of the same compound?
A: Its Papp B→A at 60 min is 0.117 ± 0.02 ×10⁻⁶ cm/s.

Q: And the Papp A→B at 120 min ([2]; Caco-2, 120 min, read-out: AP→BL Papp)?
A: Its Papp A→B at 120 min is 2.23 ×10⁻⁶ cm/s.

Q: What about the Papp B→A at 120 min ([2]; Caco-2, 120 min, read-out: BL→AP Papp) of the same compound?
A: Its Papp B→A at 120 min is 0.305 ×10⁻⁶ cm/s.
